These results are taken from patent EP3363912B1, “SELF-CALIBRATED ASSAY FOR DETERMINING PROTEOLYTIC ENZYME GENERATION, DEDICATED MEANS AND USES THEREOF” (Synapse B.V., priority 2017, dated 2018).

What all share (format): biochemical
Data set [1] concerns the target T1, plasmin-α2-macroglobulin complex (Homo sapiens, UniProt P00747).
T1 construct: thrombin and plasmin can be reacted with the plasma-derived protein α2-macroglobulin; made in house
The data set is described as follows: Plasmin generation experiment on paper, calibrator curve with plasmin-α2-macroglobulin complex. As to conditions: substrate 300 µM with 8 µM AMC added, constant E 100 nM. Here is the method: Stock solutions: SC-FII, prepared in house 1µM; Plasmin-α2macroglobulin complex, prepared in house 1 µM; rec Human recombinant tissue factor (TF) (Innovin; Siemens) 6µM. Phospholipids (PS:PC:PE, 2:6:2) prepared in house 1 mM, Human recombinant tissue plasminogen activator (tPA), (Alteplase Boehringer Ingelheim) 36 klU, Final concentrations used: SC-FII, 100 nM, Plasmin-α2macroglobulin 100 nM: tPA 300 IU. Substrate 300 µM,
To 40 µL of plasma was added 20 µL of the substrate solution (1,35 mM in BSA 60 buffer) so as to obtain a concentration of 450 µM.
To 40 µL of this mixture were added 20 µL of the activation mixture containing the indicated concentration of Ca^++, TF, PI, tPA in BSA 5 buffer. 5 µL of this of this solution was transferred to three 6 mm diameter paper rounds at the (flat) bottom of a 96-well plate. […] The plate was read in a Fluoroscan Ascent fluorometer at 37°C. Samples were measured every 10s at 390-460 nm for 50 minutes.
A plasmin generation experiment was carried out as described in the methods section with Boc-Glu-Lys-Lys-AMC (300 µM) as a substrate to which 8 µM AMC was added. […] We simultaneously recorded a fluorescence curve from plasmin-α2-macroglobulin complex, equivalent to 100 nM plasmin. From this curve, run to completion we found Fmax to be 1778 AU, whereas F0 as measured during the lag-times, was 49,2 AUs.

In data set [2] the target is T2, thrombin (Homo sapiens, UniProt P00734).
T2 construct: from tissue; host or cells: plasma
In words: Standard thrombin generation experiment in plasma, ratio method (kinetic constants of substrate conversion). As to conditions: substrate at 108 and 416 µM with 1 µM AMC added, 5 pM tissue factor, 37°C. Here is the method:
Plasma in solution: The TG experiments in the examples are variations on the standard experiment in which thrombin generation in plasma is measured in a 96-wells polystyrene microplate (Thermo Electron Corporation, Milford, MA, USA). All wells contained 80 µl plasma and 20 µl of a solution containing 0.5 - 5 pM tissue factor (TF) and 4 µM phospholipids (PL). To calibrator wells, 20 µl of calibrator was added instead so as to obtain the equivalent of 100 nM thrombin activity. Thrombin generation (TG) was initiated by the addition of 20 µl of substrate (standard: Z-Gly-Gly-Arg-AMC, 417 µM) and CaCl2 (16.6 mM).
• A. Addition of 80 µl plasma to each well • B. Addition of 20 µl TF/phospholipids mix or 20 µl calibrator to each well • C. Pre-heating of the plate for 10 min at 37°C • D. Addition of 20 µl FluCa kept at 37°C prior to the addition of the reaction mixture. • E. Immediate kinetic measurement of fluorescence in time (exc 390 nm / em 460 nm)
A standard thrombin generation experiment with 5 pM tissue factor was carried out, using Z-Gly-Gly-Arg-AMC as a substrate at the concentrations 108- and 416 bµM with 1µM of AMC added. Fom the fluorescence data the normalized ratio was calculated as Rt=(Fexp.t-F0)/(Fmax-F0) (dashed lines).

Data set [3] addresses T3, staphylocoagulase-thrombin (Homo sapiens, UniProt P00734).
T3 construct: Antithrombin-resistant thrombin activity can also be obtained reacting prothrombin with the protein staphylocoagulase; made in house
The data set is described as follows: Conversion of a substrate concentration series by staphylocoagulase-thrombin in 1:2 diluted normal plasma on filter paper. The source says:
Surface fluorescence in plasma and in whole blood has been essentially measured in the same way as published by Ninnivagi and Apitz for whole blood (Ninivaggi M, Apitz-Castro R, Dargaud Y, de Laat B, Hemker HC, Lindhout T. Whole blood thrombin generation monitored with a calibrated automated thrombogram-based assay. Clin.Chem. 2012,58:1252-1259) or in WO2006/117246. Paper discs of 5.5 mm diameter and 180 µm thickness (Whatman 589/1, Whatman GmbH, Dassel, Germany) were placed in flat bottom wells of a 96-wells polystyrene microplate (Thermo Electron Corporation, Milford, MA, USA).
• A. Preparation of paper matrices and placement into a flat-bottom 96 wells plate • B. Addition of the fluorogenic substrate solution to the plasma or to whole blood • C. Pre-heating of the reagents and whole blood for 2 min at 37°C • D. Mixing of the whole blood and the trigger mix or calibrator 1:1 • E. Pipetting 5 µL reaction mix onto the paper matrix • F. Pipetting 40 µL of mineral oil onto the paper matrix • G. Immediate measurement of fluorescence in time (exc 485 nm / em 538 nm)
In 1:2 diluted normal plasma adsorbed on filter paper a concentration series of mPEG-Gly-Pro-Arg-RhoAc (75, 150, 225, 300, 450 and 600 µM) was converted by 100 nM of staphylocoagulase-thrombin and the resulting fluorescence recorded as further described under materials and methods. […]

Where a SMILES comes first, the peptide text is derived from it. The star is where a group is joined. AMC = Cc1cc(=O)oc2cc(N*)ccc12; Boc = CC(C)(C)OC(=O)*

T1 sequence (P00747 581-810 limits assumed): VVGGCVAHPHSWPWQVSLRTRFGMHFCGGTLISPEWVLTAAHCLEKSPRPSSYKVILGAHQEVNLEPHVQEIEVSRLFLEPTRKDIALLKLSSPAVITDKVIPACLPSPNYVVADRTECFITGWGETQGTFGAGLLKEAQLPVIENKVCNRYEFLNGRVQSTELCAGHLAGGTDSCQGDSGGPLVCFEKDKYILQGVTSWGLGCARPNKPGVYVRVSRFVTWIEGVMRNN
T1 sequence (P00747 97-580 limits assumed): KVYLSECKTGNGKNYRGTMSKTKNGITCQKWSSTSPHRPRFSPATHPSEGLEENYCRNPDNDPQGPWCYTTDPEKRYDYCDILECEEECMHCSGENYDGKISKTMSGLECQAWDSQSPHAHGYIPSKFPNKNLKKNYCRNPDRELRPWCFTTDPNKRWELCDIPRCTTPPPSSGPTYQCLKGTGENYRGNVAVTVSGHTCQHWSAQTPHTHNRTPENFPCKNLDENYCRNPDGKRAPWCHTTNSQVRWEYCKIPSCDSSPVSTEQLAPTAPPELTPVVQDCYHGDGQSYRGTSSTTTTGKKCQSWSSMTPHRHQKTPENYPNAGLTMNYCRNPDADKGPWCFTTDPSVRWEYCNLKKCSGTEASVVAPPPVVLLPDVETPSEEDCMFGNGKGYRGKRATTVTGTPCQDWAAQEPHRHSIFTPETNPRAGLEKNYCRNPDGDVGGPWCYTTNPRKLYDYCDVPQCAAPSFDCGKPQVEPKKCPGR
T1 sequence (P01023 24-1474 partner): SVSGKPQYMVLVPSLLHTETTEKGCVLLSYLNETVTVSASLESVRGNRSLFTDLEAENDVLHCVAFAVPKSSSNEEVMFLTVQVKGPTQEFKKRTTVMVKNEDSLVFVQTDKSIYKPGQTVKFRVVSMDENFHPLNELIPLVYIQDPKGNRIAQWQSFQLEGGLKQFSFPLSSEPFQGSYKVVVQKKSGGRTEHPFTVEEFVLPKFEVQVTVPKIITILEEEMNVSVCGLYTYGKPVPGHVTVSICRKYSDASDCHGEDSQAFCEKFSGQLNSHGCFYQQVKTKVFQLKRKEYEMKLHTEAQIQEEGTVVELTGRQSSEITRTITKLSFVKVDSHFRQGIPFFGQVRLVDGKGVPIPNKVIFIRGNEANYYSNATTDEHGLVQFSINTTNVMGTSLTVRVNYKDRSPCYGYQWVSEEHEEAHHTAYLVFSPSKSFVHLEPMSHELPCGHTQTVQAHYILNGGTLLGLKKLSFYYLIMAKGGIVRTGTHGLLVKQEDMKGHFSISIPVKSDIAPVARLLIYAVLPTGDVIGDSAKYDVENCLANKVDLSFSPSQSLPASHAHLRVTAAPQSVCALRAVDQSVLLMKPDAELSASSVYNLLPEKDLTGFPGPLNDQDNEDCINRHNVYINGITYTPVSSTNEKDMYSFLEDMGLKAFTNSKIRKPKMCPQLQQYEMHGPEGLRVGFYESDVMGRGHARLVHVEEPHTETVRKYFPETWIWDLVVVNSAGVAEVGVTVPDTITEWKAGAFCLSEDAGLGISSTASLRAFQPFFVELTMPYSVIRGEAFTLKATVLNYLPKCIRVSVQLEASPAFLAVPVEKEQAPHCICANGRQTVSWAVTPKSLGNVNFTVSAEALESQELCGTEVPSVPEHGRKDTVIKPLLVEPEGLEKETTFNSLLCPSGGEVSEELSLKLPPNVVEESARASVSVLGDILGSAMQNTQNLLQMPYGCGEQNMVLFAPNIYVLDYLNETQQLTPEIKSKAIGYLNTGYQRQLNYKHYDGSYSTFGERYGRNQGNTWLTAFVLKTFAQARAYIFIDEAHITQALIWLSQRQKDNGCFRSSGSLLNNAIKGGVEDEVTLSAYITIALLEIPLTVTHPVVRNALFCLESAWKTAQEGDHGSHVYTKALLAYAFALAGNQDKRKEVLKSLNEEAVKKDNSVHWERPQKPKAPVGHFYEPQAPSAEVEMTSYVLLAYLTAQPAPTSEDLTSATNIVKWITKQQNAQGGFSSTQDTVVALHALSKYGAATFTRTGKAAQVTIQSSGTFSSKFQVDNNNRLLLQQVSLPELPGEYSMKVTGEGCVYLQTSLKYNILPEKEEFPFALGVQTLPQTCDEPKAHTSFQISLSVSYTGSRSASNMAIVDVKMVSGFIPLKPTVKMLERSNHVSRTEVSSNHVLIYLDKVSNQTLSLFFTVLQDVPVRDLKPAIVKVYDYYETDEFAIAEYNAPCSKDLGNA

`Cc1cc(=O)oc2cc(NC(=O)[C@H](CCCCN)NC(=O)[C@H](CCCCN)NC(=O)[C@H](CCC(=O)O)NC(=O)OC(C)(C)C)ccc12` [Boc-Glu-Lys-Lys-AMC, ButylOxyCarbonyl-Glu-Lys-Lys-AMC] (Boc-Glu-Lys-Lys-{AMC}): the Km/kcat in data set [1] is 8660 nM·min.
In the case of `Cc1cc(=O)oc2cc(NC(=O)C(CCCNC(=N)N)NC(=O)CNC(=O)CNC(=O)OCc3ccccc3)ccc12` (stereo not drawn) [Z-Gly-Gly-Arg-AMC], in data set [2], the Km (commonly the concentration of substrate that gives half-maximal velocity) is 900 µM and the kcat (commonly the maximal rate divided by the concentration of active sites) worked out at 1.9 s⁻¹.
As to mPEG-Gly-Pro-Arg-RhoAc, the Km/kcat in data set [3] (enzyme concentration 100 nM, any substrate concentration ≤ 600 µM) was 11,36 µM.min. Besides, the Michaelis constant (Km) in data set [3] (substrate 75-600 µM, 100 nM staphylocoagulase-thrombin, inferred from reaction velocity proportional to substrate concentration) is over 600 µM.
